Source: ChEMBL document CHEMBL1201862, “PubChem BioAssay data set” (2004)
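Where inhibition never reached the appropriate level, the endpoint shown equals the highest concentration tested. Otherwise, values were interpolated linearly from a five-concentration, 48-hour dose response in 96-well plates. Abbreviation: GI50, concentration required for 50% inhibition of growth.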 Calls of active or inactive are those of the source. No stated cut-off is given here; in the data, active = GI50 up to about 1.1 µM and inactive = higher.

Columns and labels:
Test in all cases: growth of human tumour cells (NCI), 48 h
SR = tested on: SR
UACC-62 = tested on: UACC-62
SK-MEL-5 = tested on: SK-MEL-5
HOP-62 = tested on: HOP-62
OVCAR-4 = tested on: OVCAR-4
EKVX = tested on: EKVX
NCI-H226 = tested on: NCI-H226
CAKI-1 = tested on: CAKI-1
SF-268 = tested on: SF-268
SN12C = tested on: SN12C
KM12 = tested on: KM12
SF-295 = tested on: SF-295
SF-539 = tested on: SF-539
LOX IMVI = tested on: LOX IMVI
SK-MEL-28 = tested on: SK-MEL-28
NCI-H23 = tested on: NCI-H23
OVCAR-5 = tested on: OVCAR-5
U-251 = tested on: U-251
NCI/ADR-RES = tested on: NCI/ADR-RES
PC-3 = tested on: PC-3

Measured: GI50

O=c1c2ccccc2c2c3c1cccc3c1cccc3c(=O)c4ccccc4c2c31
inactive: SR > 100 µM | UACC-62 > 100 µM | SK-MEL-5 > 100 µM | HOP-62 > 100 µM | OVCAR-4 > 100 µM | EKVX > 100 µM | NCI-H226 > 100 µM | CAKI-1 > 100 µM | SF-268 > 100 µM | SN12C > 100 µM | KM12 > 100 µM | SF-295 > 100 µM | SF-539 > 100 µM | LOX IMVI > 100 µM | SK-MEL-28 > 100 µM | NCI-H23 > 100 µM | OVCAR-5 > 100 µM | U-251 > 100 µM

CC(NC1=NCCO1)c1cccs1 (centres undefined)
inactive: SR 26.4 µM | UACC-62 16.5 µM | SK-MEL-5 31.8 µM | HOP-62 22.2 µM | OVCAR-4 30.8 µM | EKVX 88.1 µM | NCI-H226 46.8 µM | SF-268 30.4 µM | SN12C 60.7 µM | KM12 15.7 µM | SF-295 16.5 µM | NCI/ADR-RES > 100 µM | SK-MEL-28 23.1 µM | NCI-H23 50.2 µM | OVCAR-5 69.5 µM | U-251 18.1 µM

C1=NN2C(c3ccccc3)=NOC2C2C(c3ccccc3)=NOC12 (centres undefined)
inactive: UACC-62 > 100 µM | SK-MEL-5 58.7 µM | HOP-62 > 100 µM | EKVX > 100 µM | NCI-H226 96.2 µM | CAKI-1 > 100 µM | SF-268 > 100 µM | KM12 > 100 µM | SF-295 > 100 µM | NCI/ADR-RES 97.9 µM | SF-539 > 100 µM | PC-3 > 100 µM | LOX IMVI > 100 µM | NCI-H23 > 100 µM | OVCAR-5 > 100 µM

Cc1ccc(C)c(NC(=O)C(=O)C(C2C(C)CC(=O)C2CC(=O)O)[N+](=O)[O-])c1 (centres undefined)
inactive: SR > 100 µM | UACC-62 > 100 µM | SK-MEL-5 > 100 µM | HOP-62 > 100 µM | OVCAR-4 > 100 µM | EKVX > 100 µM | NCI-H226 > 100 µM | CAKI-1 > 100 µM | SF-268 > 100 µM | SN12C > 100 µM | KM12 > 100 µM | SF-295 > 100 µM | SF-539 > 100 µM | LOX IMVI > 100 µM | SK-MEL-28 > 100 µM | NCI-H23 > 100 µM | OVCAR-5 > 100 µM | U-251 > 100 µM

CC(=O)OCCC[C@@H]1C(=C(C)C)CCC2[C@@]1(C)CC[C@@]1(C)C[C@](C)(CCC=C(C)C)CC[C@]21C (some centres undefined)
inactive: UACC-62 > 100 µM | SK-MEL-5 > 100 µM | HOP-62 > 100 µM | OVCAR-4 > 100 µM | EKVX > 100 µM | NCI-H226 > 100 µM | CAKI-1 > 100 µM | SF-268 > 100 µM | SN12C > 100 µM | KM12 > 100 µM | SF-295 > 100 µM | NCI/ADR-RES > 100 µM | SF-539 > 100 µM | PC-3 18.5 µM | SK-MEL-28 > 100 µM | NCI-H23 > 100 µM | OVCAR-5 > 100 µM | U-251 > 100 µM

CC1CC2CC(=O)CC3(C1)C2CCCN3CCCO (centres undefined)
inactive: SR > 100 µM | UACC-62 > 100 µM | SK-MEL-5 > 100 µM | HOP-62 > 100 µM | OVCAR-4 > 100 µM | EKVX > 100 µM | NCI-H226 > 100 µM | CAKI-1 > 100 µM | SF-268 > 100 µM | SN12C > 100 µM | KM12 > 100 µM | SF-295 > 100 µM | SF-539 > 100 µM | LOX IMVI > 100 µM | SK-MEL-28 > 100 µM | NCI-H23 > 100 µM | OVCAR-5 > 100 µM | U-251 > 100 µM

CC1=NNC(=O)C1C1CC(c2c[nH]c3ccccc23)=NN(C(N)=O)C1=O (centres undefined)
inactive: UACC-62 80.7 µM | SK-MEL-5 82 µM | HOP-62 > 100 µM | EKVX > 100 µM | NCI-H226 > 100 µM | CAKI-1 > 100 µM | SF-268 > 100 µM | SN12C > 100 µM | KM12 28.5 µM | SF-295 61.2 µM | NCI/ADR-RES > 100 µM | SF-539 91.4 µM | PC-3 65.3 µM | LOX IMVI 62.7 µM | SK-MEL-28 > 100 µM | NCI-H23 29.9 µM | OVCAR-5 > 100 µM | U-251 51.2 µM

N#Cc1ccc(N2CCOCC2)cc1
inactive: UACC-62 > 100 µM | SK-MEL-5 > 100 µM | HOP-62 > 100 µM | OVCAR-4 > 100 µM | EKVX > 100 µM | CAKI-1 > 100 µM | SF-268 > 100 µM | SN12C > 100 µM | KM12 > 100 µM | SF-295 > 100 µM | NCI/ADR-RES > 100 µM | SF-539 > 100 µM | PC-3 > 100 µM | LOX IMVI 23 µM | SK-MEL-28 > 100 µM | NCI-H23 80.5 µM | OVCAR-5 > 100 µM | U-251 > 100 µM
